Results reported in US20230278972A1, “SUBSTITUTED HALOALKYL SULFONANILIDE HERBICIDES” (FMC Corporation, priority 2020, published 2023).

What was measured:
Type in all cases: in vivo
[1] = test system: goosegrass (Eleusine indica); assay: Test A1 postemergence, goosegrass; settings: 0 to 100 scale (0 no effect, 100 complete control); for Goosegrass plant response rating: 31 g ai/ha, postemergence; for Plant response rating, Goosegrass: Postemergence, 125 g ai/ha, 10 days
Outline: (§1)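 Plants were grown in a loam soil/sand blend, with test chemicals formulated in a non-phytotoxic solvent mixture containing surfactant. Preemergence treatment (corn) was a directed soil spray at planting. Postemergence treatment was applied to plants 2 to 10 cm tall at the one- to two-leaf stage.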

[2] = test system: wheat (Triticum aestivum); assay: Test A1 postemergence, wheat; settings: 0 to 100 scale (0 no effect, 100 complete control); for Wheat plant response rating: 31 g ai/ha, postemergence; for Plant response rating, Wheat: Postemergence, 125 g ai/ha, 10 days
Outline: as §1

[3] = test system: barnyardgrass (Echinochloa crus-galli); assay: Test B1 flooded paddy test, barnyardgrass; settings: 250 g ai/ha, Flood, applied to paddy water, 2-leaf stage, visually evaluated after 10 to 14 days
From the text: (§2) A dash (-) response means no test result.

[4] = test system: Pigweed, Palmer (palmer amaranth, palmer pigweed, Amaranthus palmeri); assay: Test A1 preemergence, Pigweed, Palmer
Outline: (§3)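 Pre: seeds in loam/sand blend, directed soil spray. Post: potted plants, same soil, 2–10 cm, 1–2 leaf stage. Chemicals in non-phytotoxic solvent + surfactant for both.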

[5] = test system: ragweed (common ragweed, Ambrosia artemisiifolia); assay: Test A1 preemergence, ragweed
Outline: as §3

soybean (Glycine max) [6] = assay: Test A1 preemergence, soybean
Outline: as §3

[7] = test system: Foxtail, Giant (giant foxtail, Setaria faberi); assay: Test A1 postemergence, Foxtail, Giant; settings: 0 to 100 scale (0 no effect, 100 complete control); for Foxtail, Giant plant response rating: 31 g ai/ha, postemergence; for Plant response rating, Foxtail, Giant: Postemergence, 125 g ai/ha, 10 days
Outline: as §1

kochia (Bassia scoparia) [8] = assay: Test A1 postemergence, kochia; settings: 0 to 100 scale (0 no effect, 100 complete control); for Kochia plant response rating: 31 g ai/ha, postemergence; for Plant response rating, Kochia: Postemergence, 125 g ai/ha, 10 days
Outline: as §1

[9] = test system: Foxtail, Giant (giant foxtail, Setaria faberi); assay: Test A1 preemergence, Foxtail, Giant
Outline: as §3

[10] = test system: wheat (Triticum aestivum); assay: Test A1 preemergence, wheat
Outline: as §3

[11] = test system: Ryegrass, Italian (Italian ryegrass, Lolium multiflorum); assay: Test A1 preemergence, Ryegrass, Italian
Outline: as §3

[12] = test system: ducksalad (Heteranthera limosa); assay: Test B1 flooded paddy test, ducksalad; settings: 250 g ai/ha, Flood, applied to paddy water, 2-leaf stage, visually evaluated after 10 to 14 days
From the text: as §2

[13] = test system: blackgrass (Alopecurus myosuroides); assay: Test A1 preemergence, blackgrass
Outline: as §3

[14] = test system: ragweed (common ragweed, Ambrosia artemisiifolia); assay: Test A1 postemergence, ragweed; settings: 0 to 100 scale (0 no effect, 100 complete control); for Ragweed plant response rating: 31 g ai/ha, postemergence; for Plant response rating, Ragweed: Postemergence, 125 g ai/ha, 10 days
Outline: (§4)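 Postemergence species (ragweed, Palmer pigweed, wild oat) were sprayed at one- to two-leaf stage, 2 to 10 cm tall. Corn was treated preemergence by directed soil spray. Both used a loam soil/sand blend and compounds in a non-phytotoxic solvent mixture with surfactant.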

[15] = test system: Oat, Wild (wild oat, Avena fatua); assay: Test A1 postemergence, Oat, Wild; settings: 0 to 100 scale (0 no effect, 100 complete control); for Oat, Wild plant response rating: 31 g ai/ha, postemergence; for Plant response rating, Oat, Wild: Postemergence, 125 g ai/ha, 10 days
Outline: as §4

[16] = test system: Oat, Wild (wild oat, Avena fatua); assay: Test A1 preemergence, Oat, Wild
Outline: as §3

[17] = test system: blackgrass (Alopecurus myosuroides); assay: Test A1 postemergence, blackgrass; settings: 0 to 100 scale (0 no effect, 100 complete control); for Blackgrass plant response rating: 31 g ai/ha, postemergence; for Plant response rating, Blackgrass: Postemergence, 125 g ai/ha, 10 days
Outline: as §1

corn (Zea mays) [18] = assay: Test A1 preemergence, corn
Outline: as §4

kochia (Bassia scoparia) [19] = assay: Test A1 preemergence, kochia
Outline: as §3

rice (Oryza sativa) = assay: Test B1 flooded paddy test, rice; settings: 250 g ai/ha, Flood, applied to paddy water, 2-leaf stage, visually evaluated after 10 to 14 days
From the text: as §2

[20] = test system: horseweed (Erigeron canadensis); assay: Test A1 postemergence, horseweed; settings: 0 to 100 scale (0 no effect, 100 complete control); for Horseweed plant response rating: 31 g ai/ha, postemergence; for Plant response rating, Horseweed: Postemergence, 125 g ai/ha, 10 days
Outline: as §1

[21] = test system: Pigweed, Palmer (palmer amaranth, palmer pigweed, Amaranthus palmeri); assay: Test A1 postemergence, Pigweed, Palmer; settings: 0 to 100 scale (0 no effect, 100 complete control); for Pigweed, Palmer plant response rating: 31 g ai/ha, postemergence; for Plant response rating, Pigweed, Palmer: Postemergence, 125 g ai/ha, 10 days
Outline: as §4

soybean (Glycine max) [22] = assay: Test A1 postemergence, soybean; settings: 0 to 100 scale (0 no effect, 100 complete control); for Soybean plant response rating: 31 g ai/ha, postemergence; for Plant response rating, Soybean: Postemergence, 125 g ai/ha, 10 days
Outline: as §1

corn (Zea mays) [23] = assay: Test A1 postemergence, corn; settings: 0 to 100 scale (0 no effect, 100 complete control); for Corn plant response rating: 31 g ai/ha, postemergence; for Plant response rating, Corn: Postemergence, 125 g ai/ha, 10 days
Outline: as §3

[24] = test system: Ryegrass, Italian (Italian ryegrass, Lolium multiflorum); assay: Test A1 postemergence, Ryegrass, Italian; settings: 0 to 100 scale (0 no effect, 100 complete control); for Ryegrass, Italian plant response rating: 31 g ai/ha, postemergence; for Plant response rating, Ryegrass, Italian: Postemergence, 125 g ai/ha, 10 days
Outline: as §1

[25] = test system: galium (catchweed bedstraw, Galium aparine); assay: Test A1 postemergence, galium; settings: 0 to 100 scale (0 no effect, 100 complete control); for Galium plant response rating: 31 g ai/ha, postemergence; for Plant response rating, Galium: Postemergence, 125 g ai/ha, 10 days
Outline: as §1

[26] = test system: goosegrass (Eleusine indica); assay: Test A1 preemergence, goosegrass
Outline: as §3

[27] = 31 g ai/ha, 0 to 100 scale (0 no effect, 100 complete control)
[28] = 125 g ai/ha, 0 to 100 scale, 0 no effect, 100 complete control

Cc1cc(C)c(N(COC(=O)C(C)(C)C)S(=O)(=O)C(F)(F)F)cc1N1CCC2(CCC(C)CC2)C1=O (stereo not drawn) [Compound 401]
Goosegrass plant response rating [1]: 0 | Plant response rating, Goosegrass [1]: 90 | Wheat plant response rating [2]: 0 | Plant response rating, Wheat [2]: 10 | Plant response rating, Barnyardgrass (0 to 100 scale, 0 is no effect, 100 is complete control) [3]: 98 | Plant response rating, Pigweed, Palmer [4, 27]: 0 | Plant response rating, Pigweed, Palmer [4, 28]: 20 | Plant response rating, Ragweed [5, 27]: 0 | Plant response rating, Ragweed [5, 28]: 10 | Plant response rating, Soybean (soybean (Glycine max) [6]; [27]): 0 | Plant response rating, Soybean (soybean (Glycine max) [6]; [28]): 0 | Foxtail, Giant plant response rating [7]: 0 | Plant response rating, Foxtail, Giant [7]: 60 | Kochia plant response rating (kochia (Bassia scoparia) [8]): 10 | Plant response rating, Kochia (kochia (Bassia scoparia) [8]): 30 | Plant response rating, Foxtail, Giant [9, 27]: 0 | Plant response rating, Foxtail, Giant [9, 28]: 0 | Plant response rating, Wheat [10, 27]: 0 | Plant response rating, Wheat [10, 28]: 0 | Plant response rating, Ryegrass, Italian [11, 27]: 0 | Plant response rating, Ryegrass, Italian [11, 28]: 30 | Plant response rating, Ducksalad (0 to 100 scale, 0 is no effect, 100 is complete control) [12]: 45 | Plant response rating, Blackgrass [13, 27]: 0 | Plant response rating, Blackgrass [13, 28]: 0 | Ragweed plant response rating [14]: 60 | Plant response rating, Ragweed [14]: 90 | Oat, Wild plant response rating [15]: 0 | Plant response rating, Oat, Wild [15]: 30 | Plant response rating, Oat, Wild [16, 27]: 0 | Plant response rating, Oat, Wild [16, 28]: 0 | Blackgrass plant response rating [17]: 0 | Plant response rating, Blackgrass [17]: 30 | Plant response rating, Corn (corn (Zea mays) [18]; [27]): 0 | Plant response rating, Corn (corn (Zea mays) [18]; [28]): 20 | Plant response rating, Kochia (kochia (Bassia scoparia) [19]; [27]): 0 | Plant response rating, Kochia (kochia (Bassia scoparia) [19]; [28]): 0 | Plant response rating, Rice (0 to 100 scale, 0 is no effect, 100 is complete control) (rice (Oryza sativa)): 45 | Horseweed plant response rating [20]: 0 | Plant response rating, Horseweed [20]: 0 | Pigweed, Palmer plant response rating [21]: 0 | Plant response rating, Pigweed, Palmer [21]: 30 | Soybean plant response rating (soybean (Glycine max) [22]): 60 | Plant response rating, Soybean (soybean (Glycine max) [22]): 70 | Corn plant response rating (corn (Zea mays) [23]): 10 | Plant response rating, Corn (corn (Zea mays) [23]): 60 | Ryegrass, Italian plant response rating [24]: 0 | Plant response rating, Ryegrass, Italian [24]: 0 | Galium plant response rating [25]: 50 | Plant response rating, Galium [25]: 80 | Plant response rating, Goosegrass [26, 27]: 0 | Plant response rating, Goosegrass [26, 28]: 30

Cc1cc(C)c(N2CCC3(CCC(C)CC3)C2=O)cc1NS(=O)(=O)C(F)(F)F (stereo not drawn) [Compound 402]
Goosegrass plant response rating [1]: 20 | Plant response rating, Goosegrass [1]: 70 | Wheat plant response rating [2]: 0 | Plant response rating, Wheat [2]: 0 | Plant response rating, Barnyardgrass (0 to 100 scale, 0 is no effect, 100 is complete control) [3]: 0 | Plant response rating, Pigweed, Palmer [4, 27]: 60 | Plant response rating, Pigweed, Palmer [4, 28]: 80 | Plant response rating, Ragweed [5, 27]: 20 | Plant response rating, Ragweed [5, 28]: 50 | Plant response rating, Soybean (soybean (Glycine max) [6]; [27]): 10 | Plant response rating, Soybean (soybean (Glycine max) [6]; [28]): 80 | Foxtail, Giant plant response rating [7]: 0 | Plant response rating, Foxtail, Giant [7]: 20 | Kochia plant response rating (kochia (Bassia scoparia) [8]): 10 | Plant response rating, Kochia (kochia (Bassia scoparia) [8]): 50 | Plant response rating, Foxtail, Giant [9, 27]: 90 | Plant response rating, Foxtail, Giant [9, 28]: 100 | Plant response rating, Wheat [10, 27]: 30 | Plant response rating, Wheat [10, 28]: 50 | Plant response rating, Ryegrass, Italian [11, 27]: 90 | Plant response rating, Ryegrass, Italian [11, 28]: 100 | Plant response rating, Ducksalad (0 to 100 scale, 0 is no effect, 100 is complete control) [12]: 45 | Plant response rating, Blackgrass [13, 27]: 70 | Plant response rating, Blackgrass [13, 28]: 80 | Ragweed plant response rating [14]: 50 | Plant response rating, Ragweed [14]: 50 | Oat, Wild plant response rating [15]: 10 | Plant response rating, Oat, Wild [15]: 10 | Plant response rating, Oat, Wild [16, 27]: 50 | Plant response rating, Oat, Wild [16, 28]: 70 | Blackgrass plant response rating [17]: 0 | Plant response rating, Blackgrass [17]: 0 | Plant response rating, Corn (corn (Zea mays) [18]; [27]): 0 | Plant response rating, Corn (corn (Zea mays) [18]; [28]): 80 | Plant response rating, Kochia (kochia (Bassia scoparia) [19]; [27]): 0 | Plant response rating, Kochia (kochia (Bassia scoparia) [19]; [28]): 30 | Plant response rating, Rice (0 to 100 scale, 0 is no effect, 100 is complete control) (rice (Oryza sativa)): 0 | Horseweed plant response rating [20]: 20 | Plant response rating, Horseweed [20]: 50 | Pigweed, Palmer plant response rating [21]: 20 | Plant response rating, Pigweed, Palmer [21]: 70 | Soybean plant response rating (soybean (Glycine max) [22]): 60 | Plant response rating, Soybean (soybean (Glycine max) [22]): 80 | Corn plant response rating (corn (Zea mays) [23]): 0 | Plant response rating, Corn (corn (Zea mays) [23]): 0 | Ryegrass, Italian plant response rating [24]: 0 | Plant response rating, Ryegrass, Italian [24]: 0 | Galium plant response rating [25]: 70 | Plant response rating, Galium [25]: 90 | Plant response rating, Goosegrass [26, 27]: 90 | Plant response rating, Goosegrass [26, 28]: 100
